Laboratory results published in BindingDB's records for doi:10.1124/jpet.105.089839 (F. Hoffmann-La Roche, 2005).
Values joined by “and” are separate entries in the source; they are usually repeats but may differ in a detail not shown here. Identical values can stand only once.

Columns and labels:
[1] = molecular target: Metabotropic glutamate receptor 5 (Homo sapiens, UniProt P41594)
[2] = molecular target: Metabotropic glutamate receptor 5 (Rattus norvegicus, UniProt P31424)
Chain of Metabotropic glutamate receptor 5 (Rattus norvegicus, UniProt P31424) (P31424 whole entry): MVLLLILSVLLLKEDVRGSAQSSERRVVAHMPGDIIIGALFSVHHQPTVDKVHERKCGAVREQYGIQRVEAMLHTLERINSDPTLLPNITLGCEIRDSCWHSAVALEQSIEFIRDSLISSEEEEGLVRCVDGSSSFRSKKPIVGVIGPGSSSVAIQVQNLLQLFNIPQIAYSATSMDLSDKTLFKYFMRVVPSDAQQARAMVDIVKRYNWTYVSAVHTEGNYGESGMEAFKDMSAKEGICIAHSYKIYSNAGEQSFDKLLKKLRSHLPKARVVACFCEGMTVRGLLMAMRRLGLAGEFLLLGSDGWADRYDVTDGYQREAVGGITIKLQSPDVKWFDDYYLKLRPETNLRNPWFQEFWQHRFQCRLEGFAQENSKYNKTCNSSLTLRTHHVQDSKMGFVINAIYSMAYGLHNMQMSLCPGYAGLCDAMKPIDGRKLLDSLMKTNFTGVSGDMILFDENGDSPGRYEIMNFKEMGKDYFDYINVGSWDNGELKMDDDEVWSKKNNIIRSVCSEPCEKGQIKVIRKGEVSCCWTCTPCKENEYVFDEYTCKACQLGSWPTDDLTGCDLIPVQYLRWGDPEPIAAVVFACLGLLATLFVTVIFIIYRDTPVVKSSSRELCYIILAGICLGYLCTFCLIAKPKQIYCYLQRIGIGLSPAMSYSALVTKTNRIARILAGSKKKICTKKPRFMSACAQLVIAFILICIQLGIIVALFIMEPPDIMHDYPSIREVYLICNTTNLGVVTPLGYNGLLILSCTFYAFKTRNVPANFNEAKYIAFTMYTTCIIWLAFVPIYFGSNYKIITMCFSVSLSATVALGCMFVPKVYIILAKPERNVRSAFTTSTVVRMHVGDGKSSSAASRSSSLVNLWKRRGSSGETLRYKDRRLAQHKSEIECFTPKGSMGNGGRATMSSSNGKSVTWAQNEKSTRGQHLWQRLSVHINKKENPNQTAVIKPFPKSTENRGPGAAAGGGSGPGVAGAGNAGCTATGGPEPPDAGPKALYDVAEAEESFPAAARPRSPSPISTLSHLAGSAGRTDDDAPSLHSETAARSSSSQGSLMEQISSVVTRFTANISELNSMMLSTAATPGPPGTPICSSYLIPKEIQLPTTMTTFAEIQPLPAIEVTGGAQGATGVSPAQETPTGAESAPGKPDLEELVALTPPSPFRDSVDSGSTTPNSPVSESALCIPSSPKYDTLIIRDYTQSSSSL

Chain of Metabotropic glutamate receptor 5 (Homo sapiens, UniProt P41594) (P41594 whole entry): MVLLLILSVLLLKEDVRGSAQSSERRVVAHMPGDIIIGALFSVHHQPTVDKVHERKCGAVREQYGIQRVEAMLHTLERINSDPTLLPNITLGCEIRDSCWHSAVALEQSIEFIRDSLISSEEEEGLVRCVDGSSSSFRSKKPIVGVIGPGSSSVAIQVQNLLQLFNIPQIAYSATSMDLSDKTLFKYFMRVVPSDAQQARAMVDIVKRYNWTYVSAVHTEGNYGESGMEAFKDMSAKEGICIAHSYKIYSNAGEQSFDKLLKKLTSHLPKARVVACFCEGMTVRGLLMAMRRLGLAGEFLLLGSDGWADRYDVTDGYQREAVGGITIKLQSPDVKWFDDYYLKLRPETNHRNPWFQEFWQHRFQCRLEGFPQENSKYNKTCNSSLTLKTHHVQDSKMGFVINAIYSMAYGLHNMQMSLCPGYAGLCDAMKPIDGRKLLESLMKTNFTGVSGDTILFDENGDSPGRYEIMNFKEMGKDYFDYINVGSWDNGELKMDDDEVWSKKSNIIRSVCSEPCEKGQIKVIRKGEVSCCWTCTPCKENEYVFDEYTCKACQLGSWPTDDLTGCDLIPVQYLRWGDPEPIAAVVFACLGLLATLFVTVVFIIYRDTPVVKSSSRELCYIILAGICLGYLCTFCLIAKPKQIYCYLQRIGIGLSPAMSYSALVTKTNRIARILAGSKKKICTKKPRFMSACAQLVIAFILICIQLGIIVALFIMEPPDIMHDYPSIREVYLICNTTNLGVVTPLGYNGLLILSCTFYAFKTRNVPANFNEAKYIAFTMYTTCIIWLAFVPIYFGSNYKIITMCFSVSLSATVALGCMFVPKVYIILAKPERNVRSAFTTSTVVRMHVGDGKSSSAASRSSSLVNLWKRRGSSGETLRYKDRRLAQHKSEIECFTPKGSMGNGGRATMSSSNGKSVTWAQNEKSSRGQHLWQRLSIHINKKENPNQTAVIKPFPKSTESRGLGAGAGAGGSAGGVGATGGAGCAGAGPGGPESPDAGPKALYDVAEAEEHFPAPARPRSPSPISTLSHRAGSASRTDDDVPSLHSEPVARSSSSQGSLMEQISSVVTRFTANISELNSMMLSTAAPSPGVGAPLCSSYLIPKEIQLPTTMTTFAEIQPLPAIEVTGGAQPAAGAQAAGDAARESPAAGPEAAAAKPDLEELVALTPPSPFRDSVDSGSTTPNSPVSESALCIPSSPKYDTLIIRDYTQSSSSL

Row | Ki [1] | Ki [2] | SMILES
1 | 0.0408 µM and 0.053 µM and 0.058 µM | 0.0563 µM and 0.0508 µM | Cn1cc(O)nc1NC(=O)Nc1cccc(Cl)c1 [NSC_216215]
2 | 0.357 µM and 0.328 µM and 1.1 µM | 0.486 µM and 0.346 µM | Cc1ccc(O)c(N=Nc2ccccc2)n1 [CAS_5218788]
3 | 0.334 µM and 0.219 µM and 0.8 µM | 0.423 µM and 0.243 µM | Cc1cccc(C=Cc2ccccc2)n1 [CAS_5311432]

Row | SMILES | Ki [1] | Ki [2]
4 | N[C@@H](Cn1oc(=O)[nH]c1=O)C(=O)O [NSC_40539] | > 10 µM | > 10 µM
